Test results taken from ChEMBL document CHEMBL5376004, “Discovery and Development of Quinazolinones and Quinazolinediones for Ameliorating Nonalcoholic Fatty Liver Disease (NAFLD) by Modulating COP1-ATGL Axis” (J Med Chem, 2023).
Values after ≈ are worked out from the molar mass of the structure shown. Active and inactive are the calls of the source. The rule behind the calls is not given here.

Columns and labels:
[1] = test system: HepG2; experiment: Effect on COP1 in human HepG2 cells assessed as change in p53 level at 10 to 500 nM by RT-qPCR analysis; assay type: functional, cell-based; conditions: dose 10-500 nM
[2] = test system: HepG2; experiment: Reduction in lipid droplets in human HepG2 cells by […] staining based confocal microscopic analysis; assay type: functional, cell-based
[3] = test system: HepG2; experiment: Effect on COP1 in human HepG2 cells assessed as change in c-Jun level at 10 to 500 nM by RT-qPCR analysis; assay type: functional, cell-based; conditions: dose 10-500 nM
[4] = Metabolic stability in human liver microsomes assessed as intrinsic clearance per mg of protein; assay type: ADME, Microsome; conditions: read-out: CLH
[5] = Toxicity in C57BL/6 mouse assessed as change in kidney tubular structure; assay type: tissue-based; conditions: in vivo
[6] = test system: Mus musculus; experiment: Upregulation of COP1 expression level in C57BL/6 mouse liver at 80 mg/kg, po administered for 7 days; assay type: functional, organism-based; conditions: time 7.0 day
[7] = Metabolic stability in human liver microsomes assessed as half life; assay type: ADME, Microsome
[8] = Stability in human plasma assessed as compound remaining after 2 hrs; assay type: ADME, cell-free; conditions: read-out: Stability
[9] = test system: Mus musculus; experiment: Anti-NASH activity in high-fat diet induced nonalcoholic steatohepatitis C57BL/6 mouse assessed as reduction in accumulation of fat droplets at 80 mg/kg, po administered for 1 month by H and E staining based assay; assay type: functional, organism-based; conditions: time 1.0 months
[10] = test system: Mus musculus; experiment: Upregulation of ATGL expression level in C57BL/6 mouse adipose tissue at 80 mg/kg, po administered for 7 days; assay type: functional, organism-based; conditions: time 7.0 day
[11] = molecular target: COP1-AGTL (Homo sapiens) (UniProt Q96AD5+Q8NHY2); experiment: Induction of COP1 to ATGL stabilization (unknown origin) expressed in HEK293-A cells assessed as reduction in ATGL ubiquitination incubated for 6 hrs by Western blotting analysis; assay type: cell-based
[12] = Aqueous solubility of compound at pH 7.4; assay type: physicochemical
[13] = test system: Mus musculus; experiment: Upregulation of COP1 expression level in C57BL/6 mouse adipose tissue at 80 mg/kg, po administered for 7 days; assay type: functional, organism-based; conditions: time 7.0 day
[14] = molecular target: T1, Patatin-like phospholipase domain-containing protein 2 (Homo sapiens) (UniProt Q96AD5); experiment: Inhibition of ATGL ubiquitination (unknown origin) expressed in HEK293-A cells incubated for 6 hrs by Western blotting analysis; assay type: cell-based
T1 sequence (whole entry): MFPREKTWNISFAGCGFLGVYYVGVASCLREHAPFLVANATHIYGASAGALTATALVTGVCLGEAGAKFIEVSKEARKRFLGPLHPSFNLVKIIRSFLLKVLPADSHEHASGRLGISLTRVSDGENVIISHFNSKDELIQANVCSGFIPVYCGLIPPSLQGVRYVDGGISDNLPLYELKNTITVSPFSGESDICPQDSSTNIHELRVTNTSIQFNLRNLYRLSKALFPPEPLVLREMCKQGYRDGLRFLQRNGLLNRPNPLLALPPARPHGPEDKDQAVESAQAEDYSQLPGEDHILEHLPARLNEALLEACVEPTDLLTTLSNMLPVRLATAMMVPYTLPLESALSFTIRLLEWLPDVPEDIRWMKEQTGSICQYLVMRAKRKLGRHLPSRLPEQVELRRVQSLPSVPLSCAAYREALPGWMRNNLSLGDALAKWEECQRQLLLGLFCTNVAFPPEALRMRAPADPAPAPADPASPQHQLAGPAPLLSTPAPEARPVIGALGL

[15] = test system: Hepatocyte; experiment: Upregulation of ATGL protein level in mouse primary hepatocytes incubated for 24 hrs by Western blotting analysis; assay type: functional, cell-based; conditions: dose 10-500 nM
[16] = Stability in mouse plasma assessed as compound remaining after 2 hrs; assay type: ADME, cell-free; conditions: read-out: Stability
[17] = test system: Mus musculus; experiment: Anti-NASH activity in high-fat diet induced nonalcoholic steatohepatitis C57BL/6 mouse assessed as reduction in liver collagen fiber content at 80 mg/kg, po administered for 1 month by sirius red staining based assay; assay type: functional, organism-based; conditions: time 1.0 months
[18] = Lipophilicity, logD of compound; assay type: physicochemical; conditions: octanol/water
[19] = test system: HepG2; experiment: Cytotoxicity against human HepG2 cells upto 5 uM incubated for 24 hrs by MTT assay; assay type: toxicity, cell-based; conditions: hepg2, 24 h
[20] = test system: Mus musculus; experiment: Anti-NASH activity in high-fat diet induced nonalcoholic steatohepatitis C57BL/6 mouse assessed as reduction in liver weight at 80 mg/kg, po administered for 1 month; assay type: functional, organism-based; conditions: time 1.0 months
[21] = Metabolic stability in human liver microsomes assessed as hepatic blood flow; assay type: ADME, Microsome; conditions: read-out: QH
[22] = test system: HepG2; experiment: Effect on ATGL mRNA level in human HepG2 cells at 50 to 5000 nM after 24 hrs by RT-qPCR analysis; assay type: functional, cell-based; conditions: dose 50-5000 nM
[23] = test system: Mus musculus; experiment: Anti-NASH activity in high-fat diet induced nonalcoholic steatohepatitis C57BL/6 mouse assessed as reduction in liver size at 80 mg/kg, po administered for 1 month; assay type: functional, organism-based; conditions: time 1.0 months
[24] = test system: Mus musculus; experiment: Anti-NASH activity in high-fat diet induced nonalcoholic steatohepatitis C57BL/6 mouse assessed as appearance of darker liver at 80 mg/kg, po administered for 1 month; assay type: functional, organism-based; conditions: time 1.0 months
[25] = test system: Mus musculus; experiment: Upregulation of ATGL expression level in C57BL/6 mouse liver at 80 mg/kg, po administered for 7 days; assay type: functional, organism-based; conditions: time 7.0 day
[26] = organism: Mus musculus; experiment: Upregulation of ATGL protein level in mouse primary adipose tissue incubated for 24 hrs by Western blotting analysis; assay type: functional, tissue-based; conditions: dose 100-1000 nM
[27] = Toxicity in C57BL/6 mouse assessed as change in liver morphology by H and E staining based histological analysis; assay type: tissue-based; conditions: in vivo
[28] = Toxicity in C57BL/6 mouse assessed as inflammatory infiltration; conditions: in vivo
[29] = test system: Mus musculus; experiment: Anti-NASH activity in high-fat diet induced nonalcoholic steatohepatitis C57BL/6 mouse assessed as reduction in liver triglyceride level at 80 mg/kg, po administered for 1 month; assay type: functional, organism-based; conditions: time 1.0 months
[30] = Toxicity in C57BL/6 mouse assessed as change in kidney morphology by H and E staining based histological analysis; conditions: in vivo
[31] = Metabolic stability in mouse liver microsomes assessed as hepatic blood flow; assay type: ADME, Microsome; conditions: read-out: QH
[32] = Metabolic stability in mouse liver microsomes assessed as half life; assay type: ADME, Microsome
[33] = test system: Mus musculus; experiment: Anti-NASH activity in high-fat diet induced nonalcoholic steatohepatitis C57BL/6 mouse assessed as reduction in body weight at 80 mg/kg, po administered for 1 month; assay type: functional, organism-based; conditions: time 1.0 months
[34] = Metabolic stability in mouse liver microsomes assessed as intrinsic clearance per mg of protein; assay type: ADME, Microsome; conditions: read-out: CLH
[35] = Toxicity in C57BL/6 mouse assessed as change in lung morphology by H and E staining based histological analysis; assay type: tissue-based; conditions: in vivo
[36] = test system: Hepatocyte; experiment: Reduction in lipid droplets in oleate induced mouse primary hepatocytes at 100 nM by BODIPY493/503 staining based confocal microscopic analysis; assay type: functional, cell-based
[37] = molecular target: E3 ubiquitin-protein ligase COP1 (Homo sapiens) (UniProt Q8NHY2); experiment: Inhibition of COP1 auto-ubiquitination in human HepG2 cells preincubated for 20 hrs followed by MG132 addition and measured after 4 hrs by immunoprecipitation method; assay type: cell-based; conditions: time 24.0 hrs
[38] = molecular target: T1, Patatin-like phospholipase domain-containing protein 2 (Homo sapiens); experiment: Inhibition of ATGL ubiquitination in human HepG2 cells preincubated for 20 hrs followed by MG132 addition and measured after 4 hrs by immunoprecipitation method; assay type: cell-based; conditions: time 24.0 hrs
[39] = test system: HepG2; experiment: Reduction in lipid droplets in human HepG2 cells at 100 nM incubated for 24 hrs by Hoechst 33342 staining based confocal microscopic analysis; assay type: functional, cell-based

Chain of COP1-AGTL (Homo sapiens) (Q8NHY2 whole entry, looked up, one chain of several): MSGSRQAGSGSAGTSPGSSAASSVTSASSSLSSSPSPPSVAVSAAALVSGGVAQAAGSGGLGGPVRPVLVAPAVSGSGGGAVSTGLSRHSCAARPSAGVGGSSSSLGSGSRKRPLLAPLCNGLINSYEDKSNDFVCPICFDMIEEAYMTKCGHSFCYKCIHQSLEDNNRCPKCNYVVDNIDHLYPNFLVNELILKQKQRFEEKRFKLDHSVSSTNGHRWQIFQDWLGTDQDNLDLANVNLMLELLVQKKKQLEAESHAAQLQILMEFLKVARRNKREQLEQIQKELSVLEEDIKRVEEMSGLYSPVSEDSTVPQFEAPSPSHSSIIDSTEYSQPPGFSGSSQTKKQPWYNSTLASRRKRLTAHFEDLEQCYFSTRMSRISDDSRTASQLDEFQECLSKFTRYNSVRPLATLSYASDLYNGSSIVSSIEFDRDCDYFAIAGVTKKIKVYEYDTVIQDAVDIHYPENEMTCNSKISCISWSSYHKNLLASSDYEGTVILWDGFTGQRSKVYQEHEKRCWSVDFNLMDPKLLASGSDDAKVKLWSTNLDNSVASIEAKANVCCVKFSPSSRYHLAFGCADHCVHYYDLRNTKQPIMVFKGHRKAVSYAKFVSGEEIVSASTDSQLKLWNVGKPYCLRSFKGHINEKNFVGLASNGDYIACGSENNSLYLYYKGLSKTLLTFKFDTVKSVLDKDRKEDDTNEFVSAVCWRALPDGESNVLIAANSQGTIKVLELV
Chain of E3 ubiquitin-protein ligase COP1 (Homo sapiens) (Q8NHY2 whole entry, the tested form may be a part): as the sequence (Q8NHY2 whole entry, looked up, one chain of several) above

Structure (SMILES): COCCn1cnc2ccc(NC(=O)Nc3cccc(C(C)=O)c3)cc2c1=O
- Activity [1]: inactive
- Activity [2]: Active
- Activity [3]: inactive
- microsomal CLint [4]: 5.84 µL/min/mg
- Activity [5]: Non-Toxic
- Activity [6]: Active
- half-life [7]: 119 min
- remaining at 2 h [8]: 16.9%
- Activity [9]: Active
- Activity [10]: inactive
- Activity [11]: Active
- solubility [12]: 2.56 µg/mL (≈ 6.73 µM)
- Activity [13]: inactive
- inhibition [14]: Active
- Activity [15]: Dose-Dependent Effect
- remaining at 2 h [16]: 14.2%
- Activity [17]: Active
- logD [18]: 2.38
- Activity [19]: Non-Toxic
- Activity [20]: Active
- hepatic extraction ratio [21]: 0.213
- Activity [22]: inactive
- Activity [23]: Active
- Activity [24]: Active
- Activity [25]: Active
- Activity [26]: inactive
- Activity [27]: Non-Toxic
- Activity [28]: Non-Toxic
- Activity [29]: Active
- Activity [30]: Non-Toxic
- hepatic extraction ratio [31]: 0.181
- half-life [32]: 87 min
- Activity [33]: Active
- microsomal CLint [34]: 8.15 µL/min/mg
- Activity [35]: Non-Toxic

Structure (SMILES): COCCn1c(=O)c2cc(NC(=O)Nc3cccc(C(C)=O)c3)ccc2n(CCN2CCCCC2)c1=O
- Activity [1]: inactive
- Activity [36]: Active
- Activity [2]: Active
- Activity [3]: inactive
- microsomal CLint [4]: 28.3 µL/min/mg
- Activity [5]: Non-Toxic
- Activity [6]: Active
- half-life [7]: 24.5 min
- remaining at 2 h [8]: 110%
- Activity [9]: Active
- Activity [10]: inactive
- Activity [11]: Active
- solubility [12]: 116 µg/mL (≈ 228 µM)
- Activity [13]: inactive
- inhibition [14]: Active
- Activity [15]: Dose-Dependent Effect
- inhibition [37]: Active
- remaining at 2 h [16]: 103%
- Activity [17]: Active
- logD [18]: 2.78
- Activity [19]: Non-Toxic
- Activity [20]: Active
- hepatic extraction ratio [21]: 0.567
- inhibition [38]: Active
- Activity [22]: inactive
- Activity [23]: Active
- Activity [24]: Active
- Activity [25]: Active
- Activity [26]: inactive
- Activity [39]: Active
- Activity [27]: Non-Toxic
- Activity [28]: Non-Toxic
- Activity [29]: Active
- Activity [30]: Non-Toxic
- hepatic extraction ratio [31]: 0.605
- half-life [32]: 12.3 min
- Activity [33]: Active
- microsomal CLint [34]: 56.2 µL/min/mg
- Activity [35]: Non-Toxic
